Where two headings read alike, the source gives them in different places.
Key:
[1] = cited from earlier work
[2] = Tolerability of intranasal betahistine in beagle dogs, Example 5; assay type: in vivo; details: dog
Procedure: In this study, the pharmacokinetic profile of betahistine was evaluated after a single dose administration of betahistine in male and female beagle dogs (age 5-7 months; weight of 5-11 kg, within a range of 3 kg for each sex) for three routes of administration: oral, intranasal, and intravenous.
On Day 8 of the study, the animals that received oral BH at a dose of 12 mg/kg were administered the test betahistine composition intranasally at a dose of 40 mg betahistine dihydrochloride; the animals that received oral BH at a dose of 24 mg/kg were administered the test betahistine composition intranasally at a dose of 80 mg betahistine dihydrochloride; and the animals that received oral BH at a dose of 48 mg/kg were administered the test betahistine composition intranasally at a dose of 120 mg betahistine dihydrochloride. The test betahistine composition was delivered intranasally in a single dose via an Aptar nasal spray pump device at a total dose level of 40, 80 and 120 mg of betahistine dihydrochloride. Plasma samples were collected prior to dosing, and then at 5, 10, 20 and 30 min, 1, 2, 3, 6, 24 hours after dosing.

[3] = Relative bioavailability of intranasal versus oral betahistine in humans, Example 6; assay type: in vivo; details: human
[4] = Single ascending-dose clinical trial of intranasal betahistine in healthy volunteers (plasma pharmacokinetics, LC-MS/MS); details: human; for half-life / AUC / AUC(0-inf) / AUC(0-t) / Cmax / Tmax: both, plasma, inhaled or intranasal
Procedure: The safety and pharmacokinetic profile of intranasal betahistine was further evaluated in a double-blind, randomized, placebo-controlled, single ascending-dose clinical trial involving a total of 32 healthy male and female volunteers. The main inclusion criteria were that subjects had to be aged 18-45 years and show a body mass index within the range of 18-30 kg/m^2. Subjects were required to fast for 8 hours prior to study drug administration and for 2 hours post-dose.
The betahistine was supplied as a 50 and 200 mg/mL solution in a HDPE bottle and spray pump pack (Aptar Classic Line) that delivers an accurate 100 μL per actuation. The study drug was delivered into the right nostril of subjects while they were in a supine position. For the 5 and 20 mg doses, one application of 50 and 200 mg/mL, respectively, was needed, whereas for the 10 and 40 mg doses, two applications of 50 and 200 mg/mL were required.
Serial blood samples were collected through 24 hours, following dosing on Day 1, at Day 4 and Day 7 to determine concentrations of betahistine and its main metabolite, 2-PAA in plasma. Plasma samples were assayed for BH content using validated procedures and methods. Blood samples (6 mL) were collected into tubes containing K2EDTA and were centrifuged at approximately 2000 g for 10 minutes at +4° C. and the resultant plasma transferred into 2 clean, labelled 2 mL cryovials. All plasma samples were stored at −70° C. or below until all samples had been collected and sent as a single batch for analysis. […] Concentrations were determined using liquid chromatographic tandem mass spectrometry (LC-MS/MS; SCIEX API 5000 for betahistine and SCIEX API 4000 for 2-PAA) with a validated method. Betahistine-^13CD3 dihydrochloride and 2-PAA-D4 hydrochloride served as internal standards. The standard calibration range—using a plasma sample volume of 0.2 and 0.1 mL, respectively—for betahistine was 10 to 800 pg/mL and for 2-PAA it was 2 to 2000 ng/mL. The limit of quantitation was 10 pg/mL for betahistine and 2.0 ng/mL for 2-PAA.
In case of betahistine, the method involved a liquid-liquid extraction; in case of 2-PAA it involved protein precipitation. For betahistine, plasma samples were extracted under basic conditions with an organic solvent; the organic phase was dried and reconstituted in reconstitution solvent. Approximately 0.120 mL of the aqueous layer was transferred into polypropylene vials for LC-MS/MS analysis. For 2-PAA plasma samples were precipitated with a mixture of organic solvents, supernatant was diluted and 0.120 mL was transferred into polypropylene vials for LC-MS/MS analysis. Sample analysis was conducted using reversed phase chromatography.
For each subject who completed the study, plasma concentration-time data of betahistine and 2-PAA were used for the calculation of the following pharmacokinetic parameters: • Cmax Maximum observed plasma concentration obtained directly from the data. • tmax Time to maximum observed concentration, taken directly from the data. If the maximum plasma concentration occurred at more than one time point, the first was chosen. • AUC0-last Area under the plasma concentration versus time curve, calculated using the linear trapezoidal rule from time 0 to time t, where t is the time of last quantifiable concentration. • λz Terminal elimination rate constant obtained from the slope of the line, fitted by linear least squares regression through the terminal points of the logarithmic concentration-time profiles (sometimes also referred to as kel). • AUC0-inf Area under the plasma concentration versus time curve from zero to infinity, calculated as (AUC0-t+Ct/λz), where Ct is the last quantifiable concentration. • t1/2 Apparent terminal half-life, calculated as t1/2=ln(2)/λz.
Dose normalized parameters Cmax/Dose and AUC/Dose were also calculated.

[5] = Toxicokinetic assessment of plasma betahistine and 2-PAA after intranasal betahistine (LC-MS/MS), Example 2; details: both, beagle, dog, inhaled or intranasal
Procedure: The safety and pharmacokinetic profile of intranasal betahistine was first evaluated in a single dose toxicology study in male and female beagle dogs (14-21 months of age, weight 8.2-11.8 kg). Both the vehicle and test article were delivered in a single dose via a nasal spray pump (Aptar Classic Line) with a delivery volume of 100 μL into both nostrils at total dose levels of 0 (vehicle), 4, 20 or 80 mg of betahistine dihydrochloride. Each treatment group was made up of 1 dog/sex.
Plasma concentrations were measured with liquid chromatographic tandem mass spectrometry (LC-MS/MS; SCIEX API 5000 for betahistine and SCIEX API 4000 for 2-pyridylacetic acid (2-PAA)) with a validated method. Betahistine-^13CD3 dihydrochloride and 2-PAA-D4 hydrochloride served as internal standards. The standard calibration range—using a plasma sample volume of 0.05 mL—for betahistine was 0.05 to 50 ng/mL and for 2-PAA it was 1 to 1000 ng/mL. The limit of quantitation was 0.05 ng/mL for betahistine and 1.0 ng/mL for 2-PAA.
In case of betahistine, the method involved a liquid-liquid extraction; in case of 2-PAA it involved protein precipitation. For betahistine, plasma samples were extracted under basic conditions with an organic solvent; the organic phase was dried and reconstituted in reconstitution solvent. Approximately 0.1 mL of the aqueous layer was transferred into polypropylene vials for LC-MS/MS analysis. For 2-PAA, plasma samples were precipitated with a mixture of organic solvents, supernatant was diluted and 0.12 mL was transferred into polypropylene vials for LC-MS/MS analysis. Sample analysis was conducted using reversed phase chromatography.

Q: Which results are given for `CNCCc1ccccn1` [betahistine]?
A: plasma half-life ([1]; betahistine, humans): 180 to 240 min; Cmax ([1]; human, oral betahistine 24 mg, Chen et al.): < 0.5 ng/mL; absolute bioavailability ([1]; orally administered betahistine, estimated (SmPC)): around 1%; salivation ([2]; highest concentration betahistine group): salivation was noted in most animals; sneezing ([2]; highest dose level): 2/8; AUC/Dose ([3]; intranasal 5 mg (0.07 mg/kg)): 3.01 (h · ng/mL)/(mg/kg); AUC/Dose ([3]; intranasal 10 mg (0.15 mg/kg)): 3.67 (h · ng/mL)/(mg/kg); AUC/Dose ([3]; intranasal 20 mg (0.29 mg/kg)): 5.60 (h · ng/mL)/(mg/kg); AUC/Dose ([3]; intranasal 40 mg (0.57 mg/kg)): 6.21 (h · ng/mL)/(mg/kg); half-life [4]: < 60 min; AUC ([4]; 0.07 mg/kg): 0.209 ng·h/mL; AUC ([4]; 0.15 mg/kg): 0.533 ng·h/mL; AUC ([4]; 0.29 mg/kg): 1.61 ng·h/mL; AUC ([4]; 0.57 mg/kg): 3.53 ng·h/mL; AUC(0-inf) ([4]; 5 mg): 0.277 ng·h/mL; AUC(0-t) ([4]; 5 mg): 0.209 ng·h/mL; Cmax ([4]; 5 mg): 0.638 ng/mL; Tmax ([4]; 5 mg): 12.5 min; half-life ([4]; 5 mg): 12.5 min; AUC(0-inf) ([4]; 10 mg): 0.697 ng·h/mL; AUC(0-t) ([4]; 10 mg): 0.533 ng·h/mL; Cmax ([4]; 10 mg): 2.11 ng/mL; Tmax ([4]; 10 mg): 10 min; half-life ([4]; 10 mg): 53 min; AUC(0-inf) ([4]; 20 mg): 1.63 ng·h/mL; AUC(0-t) ([4]; 20 mg): 1.61 ng·h/mL; Cmax ([4]; 20 mg): 4.11 ng/mL; Tmax ([4]; 20 mg): 10 min; half-life ([4]; 20 mg): 31.1 min; AUC(0-inf) ([4]; 40 mg): 2.94 ng·h/mL; AUC(0-t) ([4]; 40 mg): 3.53 ng·h/mL; Cmax ([4]; 40 mg): 10.5 ng/mL; Tmax ([4]; 40 mg): 7.5 min; half-life ([4]; 40 mg): 55.6 min; peak concentration in plasma ([4]; intranasal 20 mg): 4.1 ng/mL; peak concentration in plasma ([4]; intranasal 40 mg): 10.5 ng/mL; Tmax [5]: 5 min; Cmax ([5]; 4 mg): 26 ng/mL; Cmax ([5]; 20 mg): 81 ng/mL; Cmax ([5]; 80 mg): 248 ng/mL

Source: patent US20200022963A1, “PHARMACEUTICAL COMPOSITION COMPRISING BETAHISTINE” (Otolanum AG, priority 2017, published 2020)
